Literature values in patent US20110195110A1, “UREA COMPOUNDS USEFUL IN THE TREATMENT OF CANCER” (priority 2005, published 2011).

What was measured:
early phase CML = conditions: patients with early phase CML
Bcr-Abl kinase = conditions: greater potency than Imatinib
Bcr-Abl E255K mutant = conditions: biochemical assay
[1] = system: Imatinib-resistant mutations of Bcr-Abl

## Cc1ccc(NC(=O)c2ccc(CN3CCN(C)CC3)cc2)cc1Nc1nccc(-c2cccnc2)n1 [Imatinib]
Early phase CML
  response at haematological and cytogenetic levels: greater than 90%

## Cc1cn(-c2cc(NC(=O)c3ccc(C)c(Nc4nccc(-c5cccnc5)n4)c3)cc(C(F)(F)F)c2)cn1 [AMN-107]
Bcr-Abl kinase
  potency of inhibition of Bcr-Abl kinase activity relative to Imatinib: 20 fold
Bcr-Abl E255K mutant
  inhibition of the E255K mutant: somewhat weak inhibition
[1]
  inhibition of Imatinib-resistant mutations: inhibit most Imatinib-resistant mutations, except for T3151
